Test results reported in PubChem BioAssay AID623934 (Southern Research Specialized Biocontainment Screening …, 2012).
Activity calls are given as the source filed them. No rule for the calls is given here.

Legend:
[1] = cell protection from WNV infection – EC_3, dose response (AID 623934); settings: West Nile virus infected cells, antiviral cytopathic protection
[2] = system: West Nile virus infected cells, antiviral cytopathic protection; assay: as above

EC50 [2] [µM]	SMILES	inhibition ([1]; at 100 µM (top of the series))	further results
	N#Cc1ccc(-n2c(SCC(=O)Nc3ccc4c(c3)CCC4)nc3ccccc3c2=O)cc1F	2.03% (inactive)	
24.4	O=C(CSc1nc2ccccc2c(=O)n1-c1cc(Cl)c(F)cn1)Nc1ccc2c(c1)CCC2		
	O=C(CSc1nc2c(F)cccc2c(=O)n1-c1ccc(Cl)c(Cl)c1)Nc1nc(-c2ccccc2)cs1	5.8% (inactive)	
	O=C(CSc1nc2ccccc2c(=O)n1-c1c(Cl)cccc1Cl)c1nc(-c2ccccc2)cs1	3.02% (inactive)	
8.28	Cc1ccc(-n2c(SCC(=O)Nc3ccc4c(c3)CCC4)nc3ccccc3c2=O)cc1Br		
	O=C(CSc1nc2ccccc2c(=O)n1-c1ccc(Cl)c(Cl)c1)Nc1nc(-c2ccccc2)cs1	4.05% (inactive)	
13.7	O=C(CSc1nc2ccccc2c(=O)n1-c1ccc(Cl)c(Br)c1)Nc1ccc2c(c1)CCC2		
	O=C(CSc1nc2ccccc2c(=O)n1-c1ccc(Cl)c(F)c1)c1nc(-c2ccccc2)cs1	4.16% (inactive)	
4.22	Cc1cc(-n2c(SCC(=O)Nc3ccc4c(c3)CCC4)nc3ccccc3c2=O)ccc1Cl		
	N#Cc1ccc(-n2c(SCC(=O)Nc3ccc4c(c3)CCC4)nc3ccccc3c2=O)cc1	8.15% (inactive)	
	O=C(CSc1nc2c(Cl)cccc2c(=O)n1-c1cc(Cl)cc(Cl)c1)Nc1nc(-c2ccccc2)cs1	5.19% (inactive)	
11.4	O=C(CSc1nc2ccccc2c(=O)n1-c1cc(F)cc(F)c1)Nc1ccc2c(c1)CCC2		
15.4	O=C(CSc1nc2cccc(F)c2c(=O)n1-c1ccc(Cl)c(Cl)c1)Nc1ccc2c(c1)CCC2	3.14% (inactive)	
	Cc1cc(-n2c(SCC(=O)Nc3nc(-c4ccccc4)cs3)nc3ccccc3c2=O)ccc1Cl	5.12% (inactive)	
9.43	O=C(CSc1nc2c(F)cccc2c(=O)n1-c1ccc(Cl)c(Cl)c1)Nc1ccc2c(c1)CCC2		
	Cc1cc(-n2c(SCC(=O)c3nc(-c4ccccc4)cs3)nc3ccccc3c2=O)ccc1Cl		inhibition ([1]; at 50 µM (top of the series)): 3.94% (inactive)
	O=C(CSc1nc2c(F)cccc2c(=O)n1-c1cc(Cl)cc(Cl)c1)Nc1nc(-c2ccccc2)cs1	3.92% (inactive)	
6.66	Cc1cc(-n2c(SCC(=O)Nc3ccc4c(c3)CCC4)nc3ccccc3c2=O)ccc1F		
	O=C(CSc1nc2cccc(F)c2c(=O)n1-c1ccc(Cl)c(Cl)c1)Nc1nc(-c2ccccc2)cs1	3.12% (inactive)	
	O=C(CSc1nc2c(F)cccc2c(=O)n1-c1ccccc1)Nc1nc(-c2ccccc2)cs1	3.49% (inactive)	
	O=C(CSc1nc2c(Cl)cccc2c(=O)n1-c1cc(Cl)cc(Cl)c1)Nc1ccc2c(c1)CCC2	5.62% (inactive)	

EC50 [2] [µM]	SMILES	inhibition ([1]; at 100 µM (top of the series))	further results
17.3	O=C(CSc1nc2c(F)cccc2c(=O)n1-c1ccccc1)Nc1ccc2c(c1)CCC2		
	Cc1cc(-n2c(SCC(=O)Nc3nc(-c4ccccc4)cs3)nc3ccccc3c2=O)ccc1F	4.72% (inactive)	
	Cc1ccc(-n2c(SCC(=O)c3nc(-c4ccccc4)cs3)nc3ccccc3c2=O)cc1Br	4.12% (inactive)	
	N#Cc1ccc(-n2c(SCC(=O)Nc3nc(-c4ccccc4)cs3)nc3ccccc3c2=O)cc1	6.44% (inactive)	
	N#Cc1ccc(-n2c(SCC(=O)Nc3nc(-c4ccccc4)cs3)nc3ccccc3c2=O)cc1F	5.78% (inactive)	
13	O=C(CSc1nc2ccccc2c(=O)n1-c1c(Cl)cccc1Cl)Nc1ccc2c(c1)CCC2		
	Cc1cc(-n2c(SCC(=O)c3nc(-c4ccccc4)cs3)nc3ccccc3c2=O)ccc1F	3.75% (inactive)	
	N#Cc1ccc(-n2c(SCC(=O)c3nc(-c4ccccc4)cs3)nc3ccccc3c2=O)cc1	3.25% (inactive)	
	O=C(CSc1nc2ccccc2c(=O)n1-c1ccc(Cl)c(F)c1)Nc1ccc2c(c1)CCC2	7.41% (inactive)	
	O=C(CSc1nc2ccccc2c(=O)n1-c1ccccn1)Nc1ccc2c(c1)CCC2	2.47% (inactive)	
	O=C(CSc1nc2cccc(F)c2c(=O)n1-c1cc(Br)c(F)cn1)Nc1ccc2c(c1)CCC2	3.79% (inactive)	
11.4	O=C(CSc1nc2c(F)cccc2c(=O)n1-c1cc(Cl)cc(Cl)c1)Nc1ccc2c(c1)CCC2		
26.8	O=C(CSc1nc2ccccc2c(=O)n1-c1ccccc1)Nc1ccc2c(c1)CCC2		
	O=C(CSc1nc2ccccc2c(=O)n1-c1cc(F)cc(F)c1)Nc1nc(-c2ccccc2)cs1	3.67% (inactive)	
	O=C(CSc1nc2ccccc2c(=O)n1-c1ccc(Cl)c(Cl)c1)Nc1ccc2c(c1)CCC2	24.8% (inactive)	
	O=C(CSc1nc2ccccc2c(=O)n1-c1ccccn1)Nc1nc(-c2ccccc2)cs1	3.87% (inactive)	
	O=C(CSc1nc2ccccc2c(=O)n1-c1cc(F)cc(F)c1)c1nc(-c2ccccc2)cs1	6.41% (inactive)	
	O=C(CSc1nc2ccccc2c(=O)n1-c1ccc(Cl)c(Br)c1)Nc1nc(-c2ccccc2)cs1	4.48% (inactive)	
18.5	O=C(CSc1nc2ccccc2c(=O)n1-c1cc(F)c(F)cn1)Nc1ccc2c(c1)CCC2		
	O=C(CSc1nc2ccccc2c(=O)n1-c1c(Cl)cccc1Cl)Nc1nc(-c2ccccc2)cs1	1.54% (inactive)	
